Assay results reported in article PMC9377007, “An Unexpected Deuterium-Induced Metabolic Switch in Doxophylline” (ACS Medicinal Chemistry Letters, 2022).

Tests used:
[1] = tested on: BLM-induced lung injury; test: Bleomycin (BLM)-induced lung injury model; assay type: in vivo; details: BLM-treated mice, 80 mg/kg orally daily; for fibrosis: collagen fibers, Masson's Trichrome and Picrosirius red staining, semiquantitative: versus vehicle group
Description: With regard to the BLM-induced lung injury, we treated mice orally with 80 mg/kg doxophylline, d4-doxophylline, or d7-doxophylline daily (Figure 6a). […] Finally, to investigate the fibrosis, we performed a semiquantitative analysis on the Masson’s Trichrome- and Picrosirius red-stained sections in order to evaluate the presence and the packing of collagen fibers. […] Furthermore, an interesting association of the inflammatory infiltrate and stromal remodeling was observed. Indeed, the decrease in the interstitial inflammatory state led to a reduction of fibrosis in the doxophylline- and d7-treated groups, as can be observed in the respective representative images.
Figure 6 Model of pulmonary fibrosis induced by bleomycin. Doxophylline and d7-doxophylline attenuate BLM-induced structural damage and lung fibrosis in mice. (a) Representative scheme of the BLM-induced lung injury model. (b) Total BAL cellularity of sham mice (not treated) and bleomycin-treated mice (treated or not with 80 mg/kg doxophylline, d4-doxophylline, or d7-doxophylline). Results are reported as mean ± SEM of three independent experiments. (c) Wet/dry lung weight ratio of sham and bleomycin-treated mice (treated or not with 80 mg/kg doxophylline, d4-doxophylline, or d7-doxophylline). Results are reported as mean ± SEM of three independent experiments. (d) MPO activity in lungs of sham and bleomycin-treated mice (treated or not with 80 mg/kg doxophylline, d4-doxophylline and d7-doxophylline). Results are reported as mean ± SEM of three independent experiments. (e) Representative images of H&E staining of sham and bleomycin-treated mice (treated or not with 80 mg/kg doxophylline, d4-doxophylline, or d7-doxophylline). (f, g) Representative images of (f) Masson’s trichrome staining and (g) Picrorius red staining of sham and bleomycin-treated mice (treated or not with 80 mg/kg doxophylline, d4-doxophylline, or d7-doxophylline). p values: *, p < 0.05; **, p < 0.01; ***, p < 0.001; ****, p < 0.0001.
8-week-old male C57Bl/6 mice (Envigo, Indianapolis, USA) weighing between 25 and 30 g were used. Animal care was in compliance with Italian regulations on protection of animals used for experimental purposes and were authorized by the Ministry of Health. We administered BLM (0.02U/50µl) by mouse pharyngeal aspiration, under isoflurane ana esthesia.2 Doxophylline, d4 or d7 ([…], solubilized in 0.9% NaCl solution) or saline treatment (vehicle) was given orally (gavage administration) 1 h before BLM treatment, and then once a day thereafter. Mice were euthanized on day 21 following BLM treatment.
BAL was performed through a tracheal cannula using 1 mL aliquots of ice -cold Ca2+/Mg2+-free phosphate-buffered medium (145 mM NaCl, 5 mM KCl, 1.9 mM NaH 2PO4, 9.35 mM Na2HPO4, and 5.5 mM dextrose, pH 7.4). BAL samples were centrifuged at 500× g for 5 min at 4 °C, and cell pellets were washed an d resuspended in phosphate -buffered medium. BAL cells were enumerated by counting on a Hemocytometer the presence of the trypan blue stain.
Myeloperoxidase (MPO) activity, a marker of polymorphonuclear leukocyte (PMN) infiltration, was determined using MPO Colorimetric Activity Assay Kit (Merck Life Science), according to the manufacturer’s protocol. MPO activity was described as the amount of enzyme degrading 1 μM of peroxide/minute at 37°C and was expressed in U/mg of wet tissue.
Evaluation of fluid content in lungs.
The wet lung weight was calculated after harvesting the lungs, without any extraneous tissue. The lung s were subjected for 72 hours at 100°C and the dry weight was measured. Water content was calculated b y subtracting dry weight from wet weight.
Lungs were fixed with 10% buffered formalin at room temperature for 48h, dehydrated in 70% ethanol, and embedded in paraffin with Diapath automatic processor. Sections (4 μm thick) were stained with hae matoxylin and eosin (H&E) according to standard protocol and samples were mounted in Eukitt (Bio -Optica). To […]

[2] = Comparative pharmacokinetic study, single-dose administration in minipigs; assay type: in vivo; details: male, Göttingen, minipig, plasma
Description: A comparative pharmacokinetic study was then performed by evaluating the plasma concentration profiles of doxophylline and its deuterated analogues after intravenous and oral single-dose administration in mice and minipigs. […] Since the deuterium kinetic isotope effect is often affected by interspecies variability,[28] a PK study was also performed in minipigs. […] A total of 96 CD1 male mice, approximately 6 weeks old and with a body weight of approximately 30 g, were purchased from Envigo RMS srl, (San Pietro al Natisone, UD, Italy). Four males Göttingen minipigs approximately 4-5 months old and weighing 9-11 Kg were purchased from Ellegaard Göttingen Minipigs (Dalmose, Denmark). Protocol for drug administration and blood sampling. Mice. Blood samples were collected under light isoflurane anaesthesia from the sublingual vein at the following time points (n=3): pre-dose and 5, 15, 30 minutes, 1, 2, 4, 8 and 24 hours after i.v. dosing (20 mg/Kg, dose volume 5 mL/Kg) and pre-dose and 15, 30 minutes, 1, 2, 4, 8 and 24 hours after oral gavage dosing (80 mg/Kg, dose volume 5 mL/Kg). Each animal was sampled on each day at a maximum of two alternating time points. Samples were transferred into tubes containing K3EDTA as anticoagulant, centrifuged, and stored at -80 °C. Minipig. Blood samples were collected from the jugular vein at the following time points (n=4): pre-dose and 5, 15, 30 minutes, 1, 2, 4, 8 and 24 hours after i.v. dosing (5 mg/Kg, dose volume 1 mL/Kg) and pre-dose and 15, 30 minutes, 1, 2, 4, 8 and 24 hours after oral gavage dosing (20 mg/Kg, dose volume 4 mL/Kg). Samples were transferred into tubes containing K3EDTA as anticoagulant, centrifuged, and stored at -80 °C. Sample preparation for HPLC-MS analysis. A volume of 50 µL of caffeine solution (1 mg/L in water-methanol 1:1) were added to plasma sample aliquots (50 µL); after the addition of the precipitant solution (100 µL of 10% ice-cold trichloroacetic acid in water), samples were centrifuged at 13,000 rpm for ten minutes and the supernatant injected onto the HPLC system (see supporting information for chromatographic conditions). If the levels of analytes were over range, plasma samples were preventively diluted with blank plasma. Data analysis. Quantification of doxophylline and its deuterated analogues d4 and d7 as well as their main metabolites, 7- theophylline acetic acid (T-COOH), 7-hydroxyethyl theophylline (Eto) and theophylline, was performed by using the calibration curves obtained with the corresponding working standards of the analytes and using caffeine as internal standard. The pharmacokinetic parameters for doxophylline and its deuterated analogues were calculated by plotting the plasma concentration curves versus time obtained from the average values of three animals, using PK Solver 2.0.1 S7

AUC(0-t) ([2]; intravenous, 5 mg/kg) [µg·h/mL]	Cmax ([2]; intravenous, 5 mg/kg) [ng/mL]	clearance ([2]; intravenous, 5 mg/kg) [mL/min/kg]	half-life ([2]; intravenous, 5 mg/kg) [h]	AUC(0-t) ([2]; oral, 20 mg/kg) [µg·h/mL]	CL/F ([2]; oral, 20 mg/kg) [mL/min/kg]	Cmax ([2]; oral, 20 mg/kg) [ng/mL]	half-life ([2]; oral, 20 mg/kg) [h]	Compound	accumulation of immune cells in bronchoalveolar lavage (total BAL cellularity) [1]	histological examination by H&E staining [1]	fibrosis: collagen fibers, Masson's Trichrome and Picrosirius red staining, semiquantitative [1]	MPO activity in lungs [1]	ratio between wet and dry lung [1]
49.2	7420	1.67	6.2	236	1.17	15800	10.8	[2H]C1([2H])OC(Cn2cnc3c2c(=O)n(C)c(=O)n3C)OC1([2H])[2H] [d4-doxophylline]	of lesser extent and lacked statistical significance	decrease in the inflammatory interstitial infiltrate	slight tendency toward reduction in thickness and packing of collagen fibers	–	–
47	8260	1.67	6.5	222	1.17	13000	12.6	[2H]C1([2H])OC([2H])(C([2H])([2H])n2cnc3c2c(=O)n(C)c(=O)n3C)OC1([2H])[2H] [d7-doxophylline]	significantly reverted	decrease in the inflammatory interstitial infiltrate	slight tendency toward reduction in thickness and packing of collagen fibers	decreased	decreased liquid accumulation
47.7	7500	1.67	6.2	217	1.17	14000	11	Cn1c(=O)c2c(ncn2CC2OCCO2)n(C)c1=O [doxophylline]	significantly reverted	decrease in the inflammatory interstitial infiltrate	slight tendency toward reduction in thickness and packing of collagen fibers	decreased	decreased liquid accumulation
